Measured values taken from patent EP0574185B1, “PGE1 analogs” (NEWPHARMA INTERNATIONAL CORPORATION, priority 1992, dated 1993).
Like-named read-outs stand apart in the source and are kept apart here.

Experiments:
[1] = tested on: anesthetized rat; assay: Blood pressure and heart rate in anesthetized rat; format: in vivo, male Wistar rats; settings: i.v.; for HR (Heart Rate): basal 440,8 ± 9,7; for Δ MBP (Mean Blood Pressure): basal MBP 120,9 ± 4,6, n= 6
Protocol: The acute effect of B-407 on the cardiovascular system was studied. After doses of 10 µg/kg, 30 µg/kg, and 100 µg/kg, administered intravenously (i.v.) the arterial blood pressure and heart rate were evaluated on male Wistar rats weighing 300 g to 350 g. Rats were anesthetized with 40 mg/kg, i.p., of sodium pentobarbital. The left jugular vein was cannulated by means of polyethylene tubing to allow the i.v. administration of drugs. The trachea was cannulated to facilitate ventilation and the right carotid artery was cannulated to record blood pressure and heart beat. A dose of 350 UI/kg, i.v., sodium heparin was administered. The catheter of the artery was connected to a pressure transducer attached to a Berger polygraph. The volume of the i.v. administrations was 0.4 ml/kg. The working protocol was as follows:
A steady-state recording was obtained over a 30 minutes time period. Then a dose of 0.5 µg/kg of noradrenaline followed by 0.5 µg/kg of isoproterenol were administered over 5 to 10 minutes. After 5 min of recording, increasing doses of B-407 were administered every 15 minutes. The mean arterial blood pressure (mm Hg) was obtained by calculating the average of the values of […]. The heart rate (beats/min) was obtained by counting the number of contractions by units of time.

[2] = Diarrheagenic effect in mice; design: species or system Swiss mice; settings: mouse, in vivo
Protocol: The diarrheagenic effect of the synthetic PGE1 analog B-407 was evaluated in Swiss mice. The effect of the intraperitoneal and intravaginal routes of administration were studied as follows:
Six groups of ten mice (25 to 30 g) each (5 ♂ and 5 ♀) were used. They received i.p. doses of 0; 1; 3; 10; 30 and 100 µg/kg of the test drug. The diarrheagenic response was evaluated on an "all-or-none" basis as described in section C.
A seven points dose-response curve was performed for B-407. Eight groups of six mice (18 to 25 g) each received doses of 0; 10; 18; 32; 56; 100; 160 and 250 µg/kg of B-407.
The intravaginal administration was made through a polyethylene catheter attached to a 1 ml syringe. This system allows the delivery of volumes of 10 to 15 µl.
The animals were evaluated in an "all-or-none" basis as the ratio of the number of animals with diarrhea over the total number of mice in the group. The median effective doses (ED50) with their fiducial limits and the statistics were performed according Litchfield and Wilcoxon [Eur. J. Pharmacol. 34, 105 (1975); J. Pharmacol. Exp. Ther., 96, 99 (1949)].

[3] = tested on: Beagle dogs; assay: Volume and acidity of histamine stimulated gastric secretion in dogs (gastric fistula); format: in vivo
Protocol: Healthy adult Beagle dogs weighing 10 kg to 13 kg were used.
The basal response of each dog to histamine, as represented by volume of gastric secretion and acid concentration, was carried out six times. For this purpose the dogs were placed in a Pavlov support and plastic bottles were connected to a Thomas type gastric fistula after cleaning it when necessary.
Saline i.v. infusion was started by means of a Butterfly G 21 (Abbott) needle connected to a 500 ml bottle of sterile pyrogen free isotonic saline solution through an inert plastic cannula. The solution dripping was adjusted to 1 ml/min.
The volume of gastric secretion obtained from fifteen minutes collection periods, expressed as ml/15 min, was determined. Aliquots of 5 ml were kept in the freezer to perform acid titration on the next day. The first three collection periods were considered as the actual basal gastric secretion for each dog in the absence of any drug. Then the bottle of saline was changed for a solution of histamine. 2HCl at a concentration of […] in saline. The dripping was adjusted to 20 drops per minute (984 µg histamine/hour) After the plateau of augmented gastric secretion was reached, B-407 was administered.
Acid concentration, expressed as mEq H+/l was determined by titration with sodium hydroxide.

[4] = Canis lupus familiaris, iv, read-out: VOLUME % Inhib.

CCCCC(C)(O)C/C=C/[C@H]1[C@H](O)CC(=O)[C@@H]1CCCC/C=C/C(=O)OC (mixture of isomers) [B-407, trans-Δ^2-15-deoxy-16-hydroxy-16-methyl PGE1 methyl ester]
Higher lasting time ([1]; 10 µg/kg): 0,66 min | HR (Heart Rate) ([1]; 10 µg/kg): 430,6 ± 7,2 Beats / min | Δ MBP (Mean Blood Pressure) ([1]; 10 µg/kg): -11,0 ± 1,3 mm Hg | Higher lasting time ([1]; 30 µg/kg): 2,5 min | HR (Heart Rate) ([1]; 30 µg/kg): 420,7 ± 4,1 Beats / min | Δ MBP (Mean Blood Pressure) ([1]; 30 µg/kg): -29,8 ± 3,8 mm Hg | Higher lasting time ([1]; 100 µg/kg): 5,5 min | HR (Heart Rate) ([1]; 100 µg/kg): 452,7 ± 16,7 Beats / min | Δ MBP (Mean Blood Pressure) ([1]; 100 µg/kg): -47,7 ± 3,3 mm Hg | ED50 ([2]; ip, confidence limits 1,95 to 8,65, n 10): 0.00412 mg/kg | ED50 ([2]; i.vag., confidence limits 27,4 to 124,9, n 6): 0.0583 mg/kg | inhibition at 0.003 mg/kg ([3]; Canis lupus familiaris, iv, read-out: ACIDITY % Inhib): 59.7% | inhibition at 0.001 mg/kg [3, 4]: 15.2% | inhibition at 0.003 mg/kg [3, 4]: 93.7% | ACIDITY % Inhib ([3]; i.g. 10 µg/kg): 42,5% | VOLUME % Inhib. ([3]; i.g. 10 µg/kg): 24,3% | VOLUME Max.eff. B-407 ([3]; i.g. 10 µg/kg, histamine plateau 42,0±3,6): 31,8±6,2 ml/15min | ACIDITY Max.Eff. B-407 ([3]; i.g. 10 µg/kg, histamine plateau 122,4±9,7): 70,4±11,8 mEq.H^+/l | ACIDITY % Inhib ([3]; i.g. 30 µg/kg): 31,8% | VOLUME % Inhib. ([3]; i.g. 30 µg/kg): 36,3% | VOLUME Max.eff. B-407 ([3]; i.g. 30 µg/kg, histamine plateau 38,3±2,6): 24,4±3,1 ml/15min | ACIDITY Max.Eff. B-407 ([3]; i.g. 30 µg/kg, histamine plateau 143,4±3,2): 97,8±13,2 mEq.H^+/l | VOLUME Max.eff. B-407 ([3]; i.v. 1 µg/kg, histamine plateau 39,5±3,4): 33,5±3,6 ml/15min | VOLUME Max.eff. B-407 ([3]; i.v. 3 µg/kg, histamine plateau 43,2±4,6): 2,7±1,3 ml/15min | ACIDITY Max.Eff. B-407 ([3]; i.v. 3 µg/kg, histamine plateau 145,3±3,0): 58,5±16,0 mEq.H^+/l | VOLUME % Inhib. ([3]; i.vag 10 µg/kg (n=3)): 100,0% | VOLUME Max.eff. B-407 ([3]; i.vag 10 µg/kg (n=3), histamine plateau 43,0±2,0): 0,0 ml/15min | ACIDITY % Inhib ([3]; i.vag 30 µg/kg (n=2)): 67,3% | VOLUME % Inhib. ([3]; i.vag 30 µg/kg (n=2)): 93,8% | VOLUME Max.eff. B-407 ([3]; i.vag 30 µg/kg (n=2), histamine plateau 38,5±8,5): 2,4±1,7 ml/15min | ACIDITY Max.Eff. B-407 ([3]; i.vag 30 µg/kg (n=2), histamine plateau 118,9±4,3): 38,9±19,9 mEq.H^+/l | ACIDITY % Inhib ([3]; i.vag. 1 µg/kg): 24,4% | VOLUME % Inhib. ([3]; i.vag. 1 µg/kg): 30,5% | VOLUME Max.eff. B-407 ([3]; i.vag. 1 µg/kg, histamine plateau 50,8±2,4): 35,3±5,3 ml/15min | ACIDITY Max.Eff. B-407 ([3]; i.vag. 1 µg/kg, histamine plateau 134,2±6,4): 101,4±13,3 mEq.H^+/l | ACIDITY % Inhib ([3]; i.vag. 3 µg/kg): 71,5% | VOLUME % Inhib. ([3]; i.vag. 3 µg/kg): 98,4% | VOLUME Max.eff. B-407 ([3]; i.vag. 3 µg/kg, histamine plateau 49,1±2,5): 0,8±0,4 ml/15min | ACIDITY Max.Eff. B-407 ([3]; i.vag. 3 µg/kg, histamine plateau 132,6±8,7): 37,8±12,7 mEq.H^+/l
